We go through 59 molecules from PubChem BioAssay AID1645868 (Buhrlage Lab, Dana-Farber Cancer Institute and Novartis …, 2021).

Active and inactive are the calls of the source.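 How the source made its calls: active means maximal percent inhibition of the deubiquitinase OTUD3 of at least 30% across the tested doses; inactive means the rest.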 Where only a bound is given, the exact number is not on record here.

OTU domain-containing protein 3 (Homo sapiens), sequence (Q5T2D3 whole entry, looked up, the tested form may be a part): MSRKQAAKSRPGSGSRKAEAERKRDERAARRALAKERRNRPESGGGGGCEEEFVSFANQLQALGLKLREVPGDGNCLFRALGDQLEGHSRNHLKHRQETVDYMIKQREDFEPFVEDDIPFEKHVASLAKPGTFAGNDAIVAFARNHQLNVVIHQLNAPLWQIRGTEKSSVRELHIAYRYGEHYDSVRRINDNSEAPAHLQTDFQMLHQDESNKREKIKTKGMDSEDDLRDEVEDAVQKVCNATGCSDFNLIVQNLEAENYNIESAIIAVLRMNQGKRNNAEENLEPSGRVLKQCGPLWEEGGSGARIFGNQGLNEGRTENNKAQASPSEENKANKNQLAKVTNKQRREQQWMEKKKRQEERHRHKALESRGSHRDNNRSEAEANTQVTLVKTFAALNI

This assay has as its target OTU domain-containing protein 3 (Homo sapiens) (UniProt Q5T2D3). The assay is described as follows: Validation of screening hits, potency titration, in vitro enzymatic, OTU domain-containing protein 3 DUB inhibitors (AID 1645868). Particulars: purified OTUD3, ubiquitin-rhodamine cleavage fluorescence, 2 h.
As usually defined, the IC50 is the concentration at which inhibition is half-maximal. Take `CN(C(=O)c1ccncc1)[C@H]1CC[C@@]2(C)C[C@H](c3ccccc3)C[C@](C)(O2)[C@@H]1O`: the IC50 was > 50 µM (inactive).

Regarding `CCOC(=O)Nc1ccc(N2CCn3c(nc4ccccc43)C2)cc1OC`, the IC50 is > 50 µM (inactive).

For the molecule `COc1ccc(NC(=O)c2nc3n(n2)-c2ccccc2S(=O)(=O)N3)cn1`, the IC50 was > 50 µM (inactive).

With `Cc1nc(Nc2ncc(C)s2)cc(C2CN(C(=O)Cc3ccccc3)CCO2)n1` (centres undefined), the IC50 was > 50 µM (inactive).

On to `COc1ccc(C(C)NC(=O)c2cnc(-c3ccccc3)nc2-c2ccncc2)cc1` (centres undefined), for which the IC50 was > 50 µM (inactive).

Regarding `COc1ccc(NC(=O)Cn2c(CS(=O)(=O)c3ccc(C)cc3)nc3ccccc32)cc1`, the IC50 was 25.7 µM.

For the molecule `COc1ccccc1-c1ccc(SCC(=O)Nc2ccc3c(c2)OCCO3)nn1`, the IC50 was > 50 µM (inactive).

For the molecule `Cc1cc(Nc2ccc(C(=O)NCc3ccco3)cc2)n2nc(-c3cccnc3)nc2n1`, the IC50 is 37.1 µM.

For the molecule `Cc1ccc(C)c(-n2c(N)c(C(=O)NCCc3ccccc3)c3nc4ccccc4nc32)c1`, the IC50 was > 50 µM (inactive).

`COc1ccc(-c2cc(C(C)=O)c(C)n2CCC(=O)Nc2ccc(OC)cc2OC)cc1`: the IC50 was > 50 µM (inactive).

`Cc1cnc2nc3c(cc2c1)CN(S(=O)(=O)c1cc(F)ccc1C)CC3`: the IC50 is > 50 µM (inactive).

With `COc1ccc(CNC(=O)CCc2nnc3n(Cc4ccccc4Cl)c(=O)c4ccccc4n23)cc1`, the IC50 was 13.1 µM.

For the molecule `Cc1cc(=O)c2c(O)oc(O)c3c(O)cc(=O)c1c32`, the IC50 was 33.9 µM.

As for `CCCCNC(=O)c1cc2cccnc2n(Cc2ccccc2)c1=O`, the IC50 is > 50 µM (inactive).

Consider `Cc1ccc2c(c1C)NC(=O)[C@]21[C@@H]2C(=O)N(c3cccc(Cl)c3)C(=O)[C@@H]2[C@@H]2CCCN21`, for which the IC50 was > 50 µM (inactive).

For `COc1cc(C)c2c(=O)c3c(oc2c1)C(=O)c1c(O)c(OC)cc(O)c1C3=O`, the IC50 is 2.76 µM.

For `Cn1ncc2c(=O)n(Cc3cccc(Cl)c3)cnc21`, the IC50 was > 50 µM (inactive).

As for `Cc1cc(NC(=O)COc2ccc3oc4ccccc4c3c2)no1`, the IC50 was > 50 µM (inactive).

In the case of `Oc1cc(OCc2cccc(C(F)(F)F)c2)ccc1-c1ccn[nH]1`, the IC50 is 45 µM.

For the molecule `CN(CCc1ccccc1)c1nccc(N2CCN(C(=O)c3csc(-c4cccnc4)n3)CC2)n1`, the IC50 is > 50 µM (inactive).

Consider `CO[C@H]1[C@@H](O)[C@H](C)O[C@H](O[C@H]2[C@H](Oc3cccc4c(O)c5c(=O)oc6ccc(C)c7c(=O)oc(c34)c5c67)O[C@H](C)[C@H](O)[C@@H]2O)[C@@H]1O`, for which the IC50 is > 50 µM (inactive).

As for `Cc1c(C(=O)Nc2ccc(-c3nnc4n3CCCCC4)cc2)oc2c1ccc1ccccc12`, the IC50 was > 50 µM (inactive).

As for `Cc1ncc(CO)c2c1Oc1nc(-c3cccc(Cl)c3)nc(SCC(=O)N3CCCCC3)c1C2`, the IC50 is > 5 µM (inactive).

`O=c1oc2ccccc2c2nn(-c3ccccn3)cc12`: the IC50 is > 50 µM (inactive).

`COc1ccc(NC(=O)CS(=O)(=O)c2[nH]c(-c3ccc(C)cc3)nc2-c2ccccc2)cc1Cl`: the IC50 is > 50 µM (inactive).

Take `COc1ccc(-c2cc(-c3nnc(CSc4nc5ccccc5n4C)o3)c3ccccc3n2)cc1OC`: the IC50 was > 50 µM (inactive).

On to `N#Cc1c(-c2ccccc2)ccn(Cc2cccc(C(F)(F)F)c2)c1=O`, for which the IC50 was > 50 µM (inactive).

As for `COc1cccc(C(=O)NCc2[nH]nc3ccccc23)c1`, the IC50 was > 50 µM (inactive).

With `CO[C@H]1CC[C@H](O)c2c1oc1c3c4c(c(O)c1c2=O)-c1c(cc2c(Cl)c(C)n(N)c(=O)c2c1O)C[C@@H]4OCO3`, the IC50 was 26.6 µM.

Turning to `Cc1nn(-c2cccc(F)c2)c2c1c(C)c(CCC(=O)NCc1ccccn1)c(=O)n2C`, the IC50 is > 50 µM (inactive).

Turning to `COc1ccc(CCNC(=O)c2ccc3ccccc3c2)cc1OC`, the IC50 was > 50 µM (inactive).

`COc1cc2cc3c(c(O)c2c(O)c1-c1c(OC)cc2cc4c(c(O)c2c1O)C(=O)OC1CC(C)OC41)C(=O)OC1CC(C)OC31` (centres undefined): the IC50 is > 50 µM (inactive).

For the molecule `CC(=O)c1sc(NC(=O)c2ccccc2-c2ccc(C(F)(F)F)cc2)nc1C`, the IC50 was 41.7 µM.

`COc1ccccc1-c1ccc(CN2[C@@H](c3ccccc3)C[C@@H]3NC(=O)CCC[C@H]32)cc1`: the IC50 was > 50 µM (inactive).

`Cc1ccc(C(=O)NCc2ccc(C(=O)Nc3ccc(C)c(C)c3)o2)cc1`: the IC50 was > 50 µM (inactive).

On to `O=C(COC(=O)c1cc(Cl)ccc1O)Nc1ccc2c(c1)OCCO2`, for which the IC50 was 37.1 µM.

`CCCCNC(=O)C1Sc2nnc(-c3ccccc3)n2NC1c1ccccc1` (centres undefined): the IC50 is 17.9 µM.

On to `N#Cc1ccccc1OCc1csc(-c2ccccc2)n1`, for which the IC50 was > 50 µM (inactive).

On to `COc1ccc(Cn2c(=O)[nH]c3cc(C(=O)NCCCN4CCN(c5cccc(Cl)c5)CC4)ccc3c2=O)cc1`, for which the IC50 is 10 µM.

Take `CC(=O)c1ccccc1NC(=O)COc1ccc(-c2ccc(C#N)cc2)cc1`: the IC50 was > 50 µM (inactive).

Take `CC(=O)c1ccc(NC(=O)c2ccc(N3CCCCS3(=O)=O)cc2Cl)cc1`: the IC50 is 37 µM.

On to `CC(C)N1C[C@@H]2C[C@H](NS(=O)(=O)c3cccc(C#N)c3)CN2Cc2ccccc21`, for which the IC50 was > 50 µM (inactive).

For the molecule `Cc1cccc(NC(=O)CSc2nnc(-c3n[nH]c4c3CCC4)n2N)c1`, the IC50 was 31.6 µM.

As for `C=C1CCC2[C@](C)(CCC[C@]2(C)C(=O)OC)[C@H]1CCc1ccoc1/C=C/C(=O)O` (some centres undefined), the IC50 was > 50 µM (inactive).

In the case of `COc1ccc2c(c1)c(N1CCCC1=O)c(C(=O)NCc1cccc(OC)c1OC)n2C`, the IC50 is > 50 µM (inactive).

In the case of `O=S(=O)(O)c1cc2cc3ccccc3cc2[nH]1`, the IC50 was > 50 µM (inactive).

Take `c1ccc(-c2noc(-c3cc(-c4ccncc4)nc4ccccc34)n2)nc1`: the IC50 was > 50 µM (inactive).

Regarding `COc1ccc(OC)c(NC(=O)c2ccc(-n3nnnc3SC)cc2)c1`, the IC50 was > 50 µM (inactive).

As to `O=c1c2cnc3nc(-c4cccnc4)nn3c2ccn1CCc1ccccc1`, the IC50 was > 50 µM (inactive).

`O=C(Nc1ccc2c(c1)OCCO2)c1cccc2nc3ccccc3nc12`: the IC50 was 32.8 µM.

Regarding `CCn1c(=N)n(CCOc2ccc(F)cc2)c2ccccc21`, the IC50 is > 50 µM (inactive).

Take `COc1ccc(C2CC(=O)Nc3n[nH]c(-c4ccccc4)c32)cc1OC` (centres undefined): the IC50 was > 50 µM (inactive).

As for `COc1ccc(NS(=O)(=O)c2cc(NC(=O)CCc3nc4ccccc4s3)ccc2C)cc1`, the IC50 was 31.7 µM.

`O=C1CC(C(=O)Nc2ccccc2Cl)n2nc(-c3ccccc3)cc2N1` (centres undefined): the IC50 was 34 µM.

As to `Cc1ccccc1OCCC(=O)Nc1cccc(S(=O)(=O)Nc2ccccc2Cl)c1`, the IC50 is > 50 µM (inactive).

Turning to `CC(=O)N1Cc2ccccc2CC2(CCCN(CC3CCOCC3)C2)C1` (centres undefined), the IC50 was > 50 µM (inactive).

In the case of `Cc1ccc(NCc2cc3c(C(C)(C)C)nn(-c4ccc(Cl)cc4)c3[nH]c2=O)cc1`, the IC50 is 33.5 µM.

`COc1ccc(S(=O)(=O)N(C)Cc2cccs2)cc1OC`: the IC50 is > 50 µM (inactive).

As for `O=C(Cc1cccnc1)Nc1ccc(N2CCN(C3CCCCC3)C2=O)nc1`, the IC50 was > 50 µM (inactive).
